Data taken from ChEMBL document CHEMBL1135005, “Synthesis and biological evaluation of aristolactams” (Bioorg Med Chem Lett, 2002).

The compounds below were run on L1210 (assay: In vitro cytotoxic activity against L1210 murine leukemia cells). Conditions: Mus musculus.
Type: functional, cell-based

Row | Structure (SMILES) | IC50 [µM]
1 | COc1cc2cc3c4c(cccc4c2c(OC)c1OCc1ccccc1)C(=O)N3CCCCN(C)C | 10.8
2 | CCOC(CCN1C(=O)c2cc(OC)cc3c2c1cc1ccc(OC)cc13)OCC | > 10
3 | COc1cc2c(cc3c4c(cc5c(c42)OCO5)C(=O)N3CCC=O)c(OC)c1OC(C)C | 7.8
4 | COc1cc2c3c(cc4ccc(O)cc4c3c1)N(CCCN(C)C)C2=O | 1.6
5 | COc1cc2cc3c4c(cccc4c2c(OC)c1O)C(=O)N3CCCCN(C)C | 1.8
6 | CN1C(=O)c2ccc(OCc3ccccc3)c3c2c1cc1cc(OCc2ccccc2)ccc13 | 79.2
7 | COc1cc2cc3c4c(cccc4c2c(OC)c1OCc1ccccc1)C(=O)N3CCCC=O | 17.6
8 | COc1cc2c3c(cc4cc(OC)c(O)c(OC)c4c3c1)N(C)C2=O | 1.6
9 | COc1ccc2cc3c4c(cc(OC)cc4c2c1)C(=O)N3CCC=O | 5.2
10 | CCOC(CCCN1C(=O)c2cccc3c2c1cc1cc(OC)c(OCc2ccccc2)c(OC)c13)OCC | 21.2
11 | COc1cc2c3c(cc4cc(OC)c(OCc5ccccc5)c(OC)c4c3c1)N(C)C2=O | > 10
12 | COc1ccc(CN2C(=O)c3cc(OC)cc4c3c2cc2cc(OC)c(OC)c(OC)c24)cc1 | > 10
13 | COc1ccc(CN2C(=O)c3cc(OCc4ccccc4)cc4c3c2cc2cc(OC)c(OCc3ccccc3)c(OC)c24)cc1 | > 100
14 | CCOC(CCN1C(=O)c2cc3c(c4c2c1cc1c(OC)c(OC(C)C)c(OC)cc14)OCO3)OCC | 16.3
15 | CCN(CC)CCN1C(=O)c2cc(OC)cc3c2c1cc1cc(OC)c(O)c(OC)c13 | 2.3
16 | COc1cc2c3c(cc4cc(OC)c(OCc5ccccc5)c(OC)c4c3c1)N(CCC=O)C2=O | 4.7
17 | COc1ccc(CN2C(=O)c3cc(OC)cc4c3c2cc2cc(OC)ccc24)cc1 | 66.6
18 | COc1cc2c(cc3c4c(cc5c(c42)OCO5)C(=O)N3CCCN(C)C)c(OC)c1OC(C)C | 4.3
19 | COc1cc2c3c(cc4cc(OC)c(O)c(OC)c4c3c1)N(CCCN(C)C)C2=O | 5.4
20 | COc1ccc(CN2C(=O)c3cc(O)cc4c3c2cc2cc(OC)c(O)c(OC)c24)cc1 | 2.6
